≈ marks a conversion by molar mass, not a printed value. Entries after “also recorded” stand apart in the source; their conditions may differ. Where two headings read alike, the source gives them in different places.
What was measured:
Coxsackievirus B5 (CVB5) = experiment: CVB5 CPE rescue; type: cell-based
[1] = test system: ma-EV-D68 US/MO/14-18949 (Mouse adapted); experiment: CPE reduction assay, ma-EV-D68 US/MO/14-18949; type: cell-based; conditions: read-out: 50% Effective concentration EC50, RD
Polio virus 1 Mahoney [2] = type: cell-based; conditions: read-out: 50% Effective concentration EC50, Vero 76, CPE
Polio virus 1 Mahoney [3] = type: cell-based; conditions: read-out: 90% Effective concentration EC90, Vero 76, virus yield reduction
[4] = test system: Influenza H1N1 California/07/2009; experiment: CPE reduction assay, Influenza H1N1 California/07/2009; type: cell-based; conditions: read-out: 50% Effective concentration EC50, Influenza H1N1 California/07/2009, MDCK
[5] = test system: Influenza H1N1 California/07/2009; experiment: Virus yield reduction assay, Influenza H1N1 California/07/2009; type: cell-based; conditions: read-out: 90% Effective concentration EC90, Influenza H1N1 California/07/2009, MDCK
[6] = test system: Human Echovirus-11 Gregory; experiment: Virus yield reduction assay, Human Echovirus-11 Gregory; type: cell-based; conditions: read-out: 90% Effective concentration EC90, RD, lowest concentration tested 0.032 μM
[7] = test system: Human Echovirus-30 Bastianni; experiment: Virus yield reduction assay, Human Echovirus-30 Bastianni; type: cell-based; conditions: read-out: 90% Effective concentration EC90, RD, lowest concentration tested 0.032 μM
Vero = experiment: Cytotoxicity; type: cell-based; conditions: read-out: 50% Cytotoxic concentration CC50, line of Coxsackie B5
RD = experiment: Cytotoxicity; type: cell-based, human
MDCK = experiment: Cytotoxicity; type: cell-based; conditions: read-out: 50% Cytotoxic concentration CC50, line of Influenza H1N1
EV-D68 = experiment: In vitro inhibition of EV-D68; type: cell-based; conditions: read-out: EC50 against EV-D68; discussion
[8] = test system: EVD68, strain IL/14-18952 (IL52); experiment: Preliminary EVD68 inhibition at single concentration, VP1 qPCR in RD cells; type: cell-based, EV-D68; conditions: 5 μM, preliminary work, Fig. S2
Solubility = type: physicochemical
CYP1A2 = CYP1A2 (Homo sapiens, UniProt P05177); experiment: CYP inhibition, CYP1A2; type: in vitro ADME; conditions: read-out: CYP inhibition
Sequence of CYP1A2 (P05177 whole entry): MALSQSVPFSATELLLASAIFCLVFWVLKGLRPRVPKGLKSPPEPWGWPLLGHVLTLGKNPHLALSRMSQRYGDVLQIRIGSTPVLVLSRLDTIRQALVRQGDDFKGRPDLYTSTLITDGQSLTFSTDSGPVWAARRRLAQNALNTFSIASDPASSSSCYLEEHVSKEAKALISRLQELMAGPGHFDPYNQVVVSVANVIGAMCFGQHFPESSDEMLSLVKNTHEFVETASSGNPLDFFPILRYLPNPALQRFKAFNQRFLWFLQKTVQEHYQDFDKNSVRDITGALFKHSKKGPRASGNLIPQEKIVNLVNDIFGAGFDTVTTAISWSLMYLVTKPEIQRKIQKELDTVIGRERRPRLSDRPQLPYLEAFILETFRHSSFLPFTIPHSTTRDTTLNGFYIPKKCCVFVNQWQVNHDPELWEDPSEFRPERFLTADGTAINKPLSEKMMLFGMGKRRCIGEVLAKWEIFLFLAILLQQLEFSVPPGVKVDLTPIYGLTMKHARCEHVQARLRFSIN

CYP2D6 = CYP2D6 (Homo sapiens, UniProt P10635); experiment: CYP inhibition, CYP2D6; type: in vitro ADME; conditions: read-out: CYP inhibition
Sequence of CYP2D6 (P10635 whole entry): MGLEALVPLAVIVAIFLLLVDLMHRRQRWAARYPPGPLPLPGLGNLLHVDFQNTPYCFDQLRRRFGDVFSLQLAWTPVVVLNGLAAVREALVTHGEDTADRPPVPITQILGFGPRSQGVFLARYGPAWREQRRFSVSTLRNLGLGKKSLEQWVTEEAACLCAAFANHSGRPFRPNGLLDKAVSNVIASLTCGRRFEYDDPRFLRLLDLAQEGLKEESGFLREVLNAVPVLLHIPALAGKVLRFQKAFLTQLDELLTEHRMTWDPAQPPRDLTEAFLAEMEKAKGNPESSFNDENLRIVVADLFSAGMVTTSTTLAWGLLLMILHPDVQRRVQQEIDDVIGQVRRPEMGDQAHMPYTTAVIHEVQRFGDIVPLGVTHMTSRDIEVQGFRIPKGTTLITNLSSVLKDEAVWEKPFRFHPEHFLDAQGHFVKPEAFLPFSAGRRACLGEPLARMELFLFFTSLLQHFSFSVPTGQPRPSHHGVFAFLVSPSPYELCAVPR

CYP2C9 = CYP2C9 (Homo sapiens, UniProt P11712); experiment: CYP inhibition, CYP2C9; type: in vitro ADME; conditions: read-out: CYP inhibition
Sequence of CYP2C9 (P11712 whole entry): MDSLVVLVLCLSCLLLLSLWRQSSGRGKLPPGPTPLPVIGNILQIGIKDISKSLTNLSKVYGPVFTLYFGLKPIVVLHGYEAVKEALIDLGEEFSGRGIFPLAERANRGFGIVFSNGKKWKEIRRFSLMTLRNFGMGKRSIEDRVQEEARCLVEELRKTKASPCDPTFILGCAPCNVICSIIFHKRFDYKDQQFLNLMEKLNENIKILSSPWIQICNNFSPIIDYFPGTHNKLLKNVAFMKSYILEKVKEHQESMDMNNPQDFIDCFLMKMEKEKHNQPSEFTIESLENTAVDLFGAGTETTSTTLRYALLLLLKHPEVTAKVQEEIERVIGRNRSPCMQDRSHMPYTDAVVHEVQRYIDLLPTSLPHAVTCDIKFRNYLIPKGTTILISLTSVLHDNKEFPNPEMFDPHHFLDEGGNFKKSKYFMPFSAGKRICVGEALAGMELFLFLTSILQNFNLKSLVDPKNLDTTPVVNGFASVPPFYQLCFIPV

[9] = Mouse liver microsomes stability; type: in vitro ADME
[10] = Human liver microsomes stability; type: in vitro ADME
Mouse plasma stability = type: in vitro ADME; conditions: @ 5 hr, 37°C
Human plasma stability = type: in vitro ADME; conditions: @ 5 hr, 37°C
[11] = Maximum tolerated dose study in AG129 mice; type: in vivo
[12] = test system: EV-D68 MP30 PP (mouse-adapted US/MO/14-18949); experiment: EV-D68 respiratory infection model in four-week-old AG129 mice; type: in vivo
mouse-adapted CVB5 = experiment: Mouse model of CVB5-induced pancreatitis; type: in vivo, BALB/c mice
EV-D68 US/KY/14-18953 = conditions: read-out: 50% Effective concentration EC50; EV-D68 US/KY/14-18953, RD, CPE
EV-D68 US/MO/14-18949 = conditions: read-out: 50% Effective concentration EC50; EV-D68 US/MO/14-18949, RD; n=3, 4 concentrations (log10 dilution series)
EV-71 Tainan/4643/98 = conditions: read-out: 50% Effective concentration EC50; EV-71 Tainan/4643/98, Vero 76, CPE
[13] = test system: Human Echovirus-30 Bastianni; conditions: read-out: 50% Effective concentration EC50, RD, lowest concentration tested 0.032 μM
CYP3A4 [14] = biological target: CYP3A4 (Homo sapiens, UniProt P08684)
Sequence of CYP3A4 (Homo sapiens, UniProt P08684) (P08684 whole entry): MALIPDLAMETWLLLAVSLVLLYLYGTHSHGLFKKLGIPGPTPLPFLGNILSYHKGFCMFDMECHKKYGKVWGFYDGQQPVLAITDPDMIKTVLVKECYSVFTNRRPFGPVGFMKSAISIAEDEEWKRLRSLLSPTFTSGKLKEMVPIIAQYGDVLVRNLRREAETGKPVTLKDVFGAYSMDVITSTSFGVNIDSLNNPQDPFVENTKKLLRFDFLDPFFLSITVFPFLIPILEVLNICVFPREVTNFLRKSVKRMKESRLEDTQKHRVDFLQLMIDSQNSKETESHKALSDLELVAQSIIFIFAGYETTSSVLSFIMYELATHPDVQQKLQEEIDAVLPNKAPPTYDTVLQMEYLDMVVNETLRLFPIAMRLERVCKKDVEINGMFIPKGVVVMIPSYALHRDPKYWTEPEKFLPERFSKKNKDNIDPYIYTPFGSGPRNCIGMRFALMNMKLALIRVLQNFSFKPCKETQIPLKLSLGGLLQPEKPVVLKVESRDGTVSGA

CYP3A4 [15] = conditions: 1 μM, rifampicin as positive control, previously tested

Cc1cc(-c2noc(C(F)(F)F)n2)ccc1OCCCc1cc(C(=O)N(C)C)no1 [compound 11526092, 3-(3-methyl-4-(3-(3-N,N-dimethylcarbamoyl-isoxazol-5-yl)propoxy)phenyl)-5-trifluoromethyl-1,2,4-oxadiazole]
EC50 (Coxsackievirus B5 (CVB5); read-out: 50% Effective concentration EC50): 0.001 µM | EC50 (Coxsackievirus B5 (CVB5); read-out: EC50 against CVB5, Vero cells, text values (Fig. S3)): 0.0011 µM | EC50 [1]: 0.028 µM | EC50 (Polio virus 1 Mahoney [2]): 0.57 µM | EC90 (Polio virus 1 Mahoney [3]): 0.52 µM | EC50 [4]: 25.9 µM | EC90 [5]: 9.4 µM | EC90 [6]: < 0.032 µM | EC90 [7]: < 0.032 µM | CC50 (Vero): 59.1 µM | CC50 (RD; read-out: 50% Cytotoxic concentration CC50, line of EV-D68 US/KY/14-18953): 2.4 µM | CC50 (RD; read-out: 50% Cytotoxic concentration CC50, line of EV-D68 US/MO/14-18949): 28 µM | CC50 (RD; read-out: 50% Cytotoxic concentration CC50, line of Human Echovirus-11): 18 µM | CC50 (RD; read-out: 50% Cytotoxic concentration CC50, line of Human Echovirus-30): 11 µM | CC50 (MDCK): 44.8 µM | EC50 (EV-D68): 0.059 µM | Antiviral effect in RD cells infected with EV-D68 [8]: greatest antiviral effect | Solubility (in words) (Solubility): low solubility | Solubility (Solubility; Buffer pH 7.4): 0.11 µM (≈ 0.0467 µg/mL) | Solubility (Solubility; Fasted State Simulated Gastric Fluid (FaSSGF)): 0.55 µM (≈ 0.233 µg/mL) | Solubility (Solubility; Fasted State Simulated Intestinal Fluid (FaSSIF)): 12.05 µM (≈ 5.11 µg/mL) | IC50 (CYP1A2): > 50 µM | IC50 (CYP2D6): > 50 µM | IC50 (CYP2C9): 5 µM | Mouse liver microsomes stability (in words) [9]: poor mouse microsomal stability; also recorded: unstable | Mouse liver microsomes CLint ([9]; mouse): 70.6 μL/min/mg protein | Mouse liver microsomes t1/2 ([9]; mouse): 19.6 min | Human liver microsomes stability (in words) [10]: metabolically stable | Human liver microsomes T1/2 ([10]; human): 55.3 min | Human liver microsomes clearance ([10]; human): 25.1 μL /min/mg protein | Mouse plasma stability (Mouse plasma stability): 81.1% @ 5 hr, 37 °C | Human plasma stability (Human plasma stability): 93.9% @ 5 hr, 37 °C | Maximum tolerated dose ([11]; given IP): > 10 mg/kg | Maximum tolerated dose ([11]; given PO): > 100 mg/kg | Lung concentration of IFN-γ ([12]; 10 mg/kg, day 1): reductions | Lung concentration of IL-10 ([12]; 10 mg/kg, day 5): increase | Lung virus titer ([12]; 30 mg dose, day 5 p.i., P≤0.05 vs placebo): significant reduction | Lung concentration of MIP-1α ([12]; 30 mg/kg, day 5): increase | Lung concentration of MCP-1 ([12]; 100 mg/kg, day 1): reductions | Lung concentration of IL-1α ([12]; 100 mg/kg, day 3): increase | Lung concentration of IL-1β ([12]; 100 mg/kg, day 3): increase | Lung concentration of IL-4 ([12]; 100 mg/kg, day 3): increase | Lung concentration of IL-6 ([12]; 100 mg/kg, day 3): increase | Protection from weight loss (percentage of initial body weight) ([12]; 100 mg/kg/d PO, P<0.05, Fig. S16): significant protection from weight loss | Decrease of viremia ([12]; abstract): 3 log | Lung concentration of RANTES ([12]; all doses, day 1, P≤0.01 - P≤0.0001): significantly reduced | Lung concentration of GM-CSF ([12]; all doses, day 1, P≤0.01 - P≤0.001): significantly reduced | Lung concentration of IL-3 ([12]; all doses, day 1, P≤0.05): significantly reduced | Lung concentration of IL-5 ([12]; all doses, day 1, P≤0.05): significantly reduced | Virus titers in the blood (viremia) ([12]; all doses, days 1 and 3 p.i., P≤0.0001): reduce viremia | Lung virus titers ([12]; day 3 p.i., this study): did not demonstrate any antiviral activity | Reduction in lung titer ([12]; day 5, abstract): 1 log | Relative fold gene expression in the pancreas (qPCR) (mouse-adapted CVB5; 100 mg/kg per day, Fig. 5B): statistically significant (P≤0.05) decrease | Histology of pancreatic tissue (mouse-adapted CVB5; CVB5-infected mice, Fig. S20): no signs of tissue damage | EC50 (EV-D68 US/KY/14-18953): 0.042 µM | EC50 (EV-D68 US/MO/14-18949): < 0.1 µM | EC50 (EV-71 Tainan/4643/98): 4.24 µM | EC50 [13]: < 0.032 µM | CC50 (Vero 76): 10.8 µM | CC50 (Vero 76; read-out: 50% Cytotoxic concentration CC50, Vero 76, line of Coxsackie B3 HA 201933): 8 µM | CC50 (Vero 76; read-out: 50% Cytotoxic concentration CC50, Vero 76, line of Coxsackie B3 Nancy): 8 µM | CC50 (Vero 76; read-out: 50% Cytotoxic concentration CC50, Vero 76, line of EV-71): 8.25 µM | CC50 (Vero 76; read-out: 50% Cytotoxic concentration CC50, Vero 76, line of SARS-CoV-2): 7.54 µM | Effect on CYP3A4 (in words) (CYP3A4 [14]; human liver microsomes, at higher concentrations (Fig. S21)): activation (or autoactivation) of CYP3A4; also recorded: * CYP3A4 demonstrates activation with 11526092 | IC50 (CYP3A4 [14]; read-out: CYP inhibition, CYP3A4): > 50 µM | CYP3A induction, of control (CYP3A4 [15]): 3 % of control | CYP3A induction (CYP3A4 [15]; single donor in duplicate): 1.2 x

Source: publication PMC10527014 (Antiviral research, 2023)
